Data on 1 substance can be found in US20150359854A1 (HUMAN MATRIX SCIENCES, LLC, priority 2012, published 2015).

“Also recorded” adds a separate entry of the source.

The test system of one test is tropoelastin mRNA. In words: RT-PCR assay of tropoelastin mRNA. Conditions: 10 nmol/L insulin. It is filed as cell-based, human. As for the experimental part:
At the end of the treatments, total RNA was extracted from quadruplicate cultures in each experimental group using the RNEASY® (RNA isolation) Mini Kit. One microgram total RNA from each sample was added to one-step RT-PCR (One-Step RT-PCR Kit; Qiagen, Inc.). The reactions were set up in a total volume of 25 μL. The reverse transcription step was performed for elastin and 18S ribosomal RNA reactions at 50° C. for 30 minutes, followed by 15 minutes at 95° C. The elastin PCR reaction using sense primer 5′[…]-3′ (SEQ ID NO 1) and antisense primer 5′[…]3′ (SEQ ID NO 2). The products were analyzed using ethidium bromide staining and densitometry-based image analysis using an optical system (Gel Doc 1000; Bio-Rad Laboratories, Inc., Hercules, Calif.). The amount of tropoelastin mRNA was standardized relative to the amount of 18S ribosomal RNA and expressed as percentage of control values.

In test [1] the test system is human aortic SMCs (AoSMCs). In words: Immunocytochemistry and morphometry of elastic fibers in AoSMC cultures. It is filed as cell-based. Conditions: 24-hour treatment, 0.5 to 100 nmol/L insulin, confluent AoSMCs, 2% FBS. The source says: Human aortic SMCs (AoSMCs) were propagated from small fragments of aortic media collected from autopsy. Guidelines for the protection of human subjects of the US Department of Health and Human Services and of the Declaration of Helsinki were followed in obtaining tissues for this investigation. Cells migrating from the cultured explants of aortic media were routinely passaged (up to three times) via trypsinization using 0.2% trypsin-0.02% EDTA, and were maintained in DMEM supplemented with 5% FBS and 1% antibiotic-antimycotic mix. The second and third passages of cells that migrated from the original explants of aortic media were routinely probed with antibodies recognizing the SMC-specific α-actin to monitor the preservation of the SMC phenotype. All cells were initially plated at 100,000 cells per dish for immediate confluency so they would begin extracellular matrix production. The cell cultures committed to particular experiments were then transferred to DMEM containing either 2% FBS or to serum-free medium before initiation of particular treatments.
At the end of treatments, confluent cultures of AoSMCs were fixed in cold 100% methanol at −20° C. for 30 minutes, and blocked with 1% normal goat serum for 1 hour. The cultures were then incubated for 1 hour with 10 μg/mL polyclonal antibodies to tropoelastin and/or with 10 μg/mL monoclonal antibody to SMC-specific α-actin. All cultures were then incubated for another hour with the respective fluorescein-conjugated secondary antibodies (fluorescein-conjugated goat anti-rabbit or anti-mouse). Nuclei were counterstained with red-fluorescent propidium iodide or blue-fluorescent DAPI. The cultures were then mounted in ethanol and examined using a microscope (Eclipse E1000; Nikon Instruments, Inc., Melville, N.Y.) attached to a cooled CCD camera (Retiga EX; QImaging Corp., Vancouver, BC, Canada) and a computer-generated morphometric analysis system (Image-Pro Plus software; Media Cybernetics, Inc., Bethesda, Md.). In each analyzed group, 50 low-power fields from three separate cultures were analyzed, and the areas occupied by immunodetectable elastic fibers were expressed as a percentage of the entire analyzed field.

Test [2] relates to human aortic SMCs (AoSMCs). In words: Cell proliferation ([3H]-thymidine incorporation and Ki-67 immunodetection). The settings on record: 48-hour AoSMC cultures, 0.5 to 100 nmol/L insulin. It is filed as cell-based. As for the experimental part:
Cells were plated in 35-mm culture dishes (100,000 cells per dish) containing DMEM supplemented with 5% FBS. The cultures were grown to 70% to 80% confluency and serum-starved overnight to synchronize the cell cycles. […] The total amount of [3H]-thymidine-labeled DNA in individual cultures was then assessed via scintillation counting. […] The cultures were counterstained with hematoxylin. In each experimental group, quadruplicate cultures were examined under 200× magnification. The percentage of positively stained cells was determined and averaged over the 30 fields examined.
On the technique in general: Uptake of a labelled nucleoside into DNA is a usual measure of proliferation.

Test [3] has as its target Insulin-Like Growth Factor-1 Receptor (IGFR-1R) (Homo sapiens, UniProt P08069). Conditions: cited from earlier work.
In the next test the test system is tropoelastin. In words: Metabolically labeled tropoelastin in cell extracts and conditioned media (secretion). It is filed as cell-based, human. The settings on record: 10 nmol/L insulin, 1 hour. As for the experimental part:
Cells were plated in 35-mm dishes at a density of 100,000 cells per dish and were grown to confluency. Two microcuries [3H]-valine per milliliter fresh medium supplemented with 2% FBS was added 2 hours before the indicated treatments. At the end of each experiment, the conditioned medium was collected and subjected to immunoprecipitation using anti-tropoelastin antibody. The cell layers were washed with PBS and incubated using radioimmunoprecipitation lysis buffer for 10 minutes on ice. After centrifugation, the supernatants were collected and subjected to immunoprecipitation using anti-tropoelastin antibody. […] Final results (counts per minute) reflecting the total amount of [3H]-valine-labeled insoluble elastin in individual cultures were normalized per their DNA contents (assessed using the Qiagen […] isolation) Tissue Kit) and expressed as percentage of control values. At the end of all treatments, cells from quadruplicate cultures in each experimental group were lysed using NP40 cell lysis buffer (Invitrogen Corp.). Thirty micrograms of protein extracts from each sample was suspended in standard sample buffer, resolved on 4% to 12% gradient SDS-PAGE gels, transferred to nitrocellulose membranes, and subjected to Western blotting using antibodies. At the end of indicated treatments, the cultured cells were lysed as described, and 300 μL aliquots of cell extracts containing […] were incubated at 4° C. for 3 hours with the aliquots of protein G bound DYNABEADS® (Invitrogen Corp.) that were conjugated with either rabbit polyclonal anti-tropoelastin, goat polyclonal anti-Glut10, or rabbit polyclonal anti-S-Gal antibodies. The beads carrying the final immunoprecipitation products were then washed with PBS, resuspended in sample buffer, and boiled for 5 minutes. The released proteins were then resolved on SDS-PAGE gel and subjected to Western blotting using indicated antibodies.

The mark [4] stands for this setting: after 2 hours [3H]-valine and BAPN, serum-free.
Where [5] appears, read: after 3 hours [3H]-valine and β-aminopropionitrile, 2% FBS.

For insulin, the “time of peak up-regulation of tropoelastin mRNA” value with tropoelastin mRNA is 8 h. The “tropoelastin mRNA level” value with tropoelastin mRNA (in 4 hours (time course)) is recorded as “significant up-regulation”. Further, in the test with tropoelastin mRNA (8-hour treatment, serum-free), the “tropoelastin mRNA level” value is listed as “induced significant up-regulation”. For the same substance, the “production of immunodetected elastic fibers” value in test [1] was “dose-dependent increase; also recorded: induce new elastogenesis in a dose-dependent manner”. Moreover, in test [2], the “basic proliferative rate ([3H]-thymidine incorporation, Ki-67)” value is listed as “did not induce any up-regulation”. In test [3], the “lower affinity of IGFR-1R for insulin compared to the insulin receptor” value is given as 1000 ×. Also, in the test on tropoelastin (setting [4]), the “immunodetected soluble tropoelastin in conditioned media vs untreated” value is on record as “significantly more” and the “metabolically labeled soluble tropoelastin in cell extracts vs untreated” value is on record as “significantly less”. In addition, in the test with tropoelastin (setting [5]), the “less metabolically labeled tropoelastin in cell layer extracts than untreated controls” value is on record as 66%±6% and the “more metabolically labeled tropoelastin in conditioned media than untreated counterparts” value is on record as 94%±4%.
